Laboratory results taken from US10472341B2, “Bicyclic tetrahydrothiazepine derivatives useful for the treatment of neoplastic and/or infectious diseases” (APEIRON BIOLOGICS AG, priority 2015, dated 2019).
Where a name gives a salt, the structure may show the parent alone. Read-outs that look alike come from different tables or passages of the source.

What was measured:
[1] = system: aCD3/aCD28-stimulated human CD4+-T-cells; test: IL-2 production and activation markers in aCD3/aCD28 stimulated isolated human CD4+-T-cells; type: cell-based; details: IL-2 production at 3 μM compound
How it was run: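 CD4+ T cells isolated from buffy-coat PBMCs by microbeads were plated in Xvivo medium (1.5*10^5 cells/well) and stimulated with anti-CD3/28 mAbs plus compound. IL-2 measured by ELISA in supernatants at 24 h or 48 h; CD25 and proliferation by flow cytometry, CD69 at 24 h. Activity classes based on IL-2 at 3 μM compound.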

[2] = system: aCD3/aCD28-stimulated human PBMCs; test: Cytokine production in aCD3/aCD28 stimulated human PBMCs; type: cell-based; details: PBMC, 18 h
How it was run: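 Compound effects measured in buffy-coat PBMCs activated 18 h at 37° C by 1 μg/mL each of soluble anti-CD3 (OKT3) and anti-CD28 (28.2), 1e6 cells/mL. Cytokines in harvested supernatants read by MSD or HTRF.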

[3] = enhancement of IFN-γ production, read-out: Activity Class IFN-γ
[4] = enhancement of IL-2 production, read-out: Activity Class IL-2

Row | SMILES | Activity Class CD4+ [1] | EC50 [2, 3] [µM] | EC50 [2, 4] [µM]
1 | CC(C)(C)C(=O)NCCCNC(=O)c1ccc2c(c1)N(Cc1ccc(OC(F)(F)F)cc1)C(=O)[C@@H](N)CS2.Cl [Example 12, N-(3-{[(3R)-3-amino-4-oxo-5-{[4-(trifluoromethoxy)phenyl]methyl}-2,3,4,5-tetrahydro-1,5-benzothiazepin-7-yl]formamido}propyl)-2,2-dimethylpropanamide hydrochloride] | C (IL-2 production at 3 μM compound concentration between 2-fold increase as compared to mean IL-2 production of stimulated cells in the absence of compounds and <2 ng/mL) | > 5.01 | > 5.01
2 | CCCCNC(=O)c1ccc2c(c1)N(Cc1ccc(Cl)cc1)C(=O)[C@@H](N)CS2.Cl [Example 10, (3R)-3-amino-N-butyl-5-[(4-chlorophenyl)methyl]-4-oxo-2,3,4,5-tetrahydro-1,5-benzothiazepine-7-carboxamide hydrochloride] | C (IL-2 production at 3 μM compound concentration between 2-fold increase as compared to mean IL-2 production of stimulated cells in the absence of compounds and <2 ng/mL) | 1.58 to 5.01 | > 5.01
3 | CCCCNC(=O)c1ccc2c(c1)N(Cc1ccc(Cl)cc1)C(=O)[C@@H](N)C[S+]2[O-].Cl (stereo partly drawn) [Example 66, (3R)-3-amino-N-butyl-5-[(4-chlorophenyl)methyl]-1,4-dioxo-2,3,4,5-tetrahydro-1λ^4,5-benzothiazepine-7-carboxamide hydrochloride] | C (IL-2 production at 3 μM compound concentration between 2-fold increase as compared to mean IL-2 production of stimulated cells in the absence of compounds and <2 ng/mL) | < 1.58 | 1.58 to 5.01
4 | Cl.N[C@H]1CSc2ccc(C(=O)NC3CCC(F)(F)CC3)cc2N(Cc2ccc(Cl)cc2)C1=O [Example 33, (3R)-3-amino-5-[(4-chlorophenyl)methyl]-N-(4,4-difluorocyclohexyl)-4-oxo-2,3,4,5-tetrahydro-1,5-benzothiazepine-7-carboxamide hydrochloride] | B (IL-2 production at 3 μM compound concentration between 2-10 ng/mL) | < 1.58 | 1.58 to 5.01
5 | CCNC(=O)c1ccc2c(c1)N(Cc1ccc(OC(F)(F)F)cc1)C(=O)[C@@H](N)CS2.Cl [Example 18, (3R)-3-amino-N-ethyl-4-oxo-5-{[4-(trifluoromethoxy)phenyl]methyl}-2,3,4,5-tetrahydro-1,5-benzothiazepine-7-carboxamide hydrochloride] | C (IL-2 production at 3 μM compound concentration between 2-fold increase as compared to mean IL-2 production of stimulated cells in the absence of compounds and <2 ng/mL) | < 1.58 | 1.58 to 5.01
6 | Cc1nc(-c2ccc(CN3C(=O)[C@@H](N)CSc4ccc(C(=O)NCC5CCOCC5)cc43)cc2)no1.Cl [Example 44, (3R)-3-amino-5-{[4-(5-methyl-1,2,4-oxadiazol-3-yl)phenyl]methyl}-N-(oxan-4-ylmethyl)-4-oxo-2,3,4,5-tetrahydro-1,5-benzothiazepine-7-carboxamide hydrochloride] | C (IL-2 production at 3 μM compound concentration between 2-fold increase as compared to mean IL-2 production of stimulated cells in the absence of compounds and <2 ng/mL) | 1.58 to 5.01 | > 5.01
7 | Cl.N[C@H]1CS(=O)(=O)c2cc(F)c(C(=O)NC3CC(F)(F)C3)cc2N(Cc2ccc(Cl)cc2)C1=O [Example 102, (3R)-3-amino-5-[(4-chlorophenyl)methyl]-N-(3,3-difluorocyclobutyl)-8-fluoro-1,1,4-trioxo-2,3,4,5-tetrahydro-1λ^6,5-benzothiazepine-7-carboxamide hydrochloride] | A (IL-2 production at 3 μM compound concentration >10 ng/mL) | < 1.58 | < 1.58
8 | Cl.N[C@H]1CSc2cc(F)c(C(=O)NCc3ccc(F)cc3)cc2N(Cc2ccc(Cl)cc2)C1=O [Example 39, (3R)-3-amino-5-[(4-chlorophenyl)methyl]-8-fluoro-N-[(4-fluorophenyl)methyl]-4-oxo-2,3,4,5-tetrahydro-1,5-benzothiazepine-7-carboxamide hydrochloride] | B (IL-2 production at 3 μM compound concentration between 2-10 ng/mL) | < 1.58 | 1.58 to 5.01
9 | CC(C)CONC(=O)c1cc2c(cc1F)SC[C@H](N)C(=O)N2Cc1ccc(Cl)cc1.Cl [Example 59, (3R)-3-amino-5-[(4-chlorophenyl)methyl]-8-fluoro-N-(2-methylpropoxy)-4-oxo-2,3,4,5-tetrahydro-1,5-benzothiazepine-7-carboxamide hydrochloride] | C (IL-2 production at 3 μM compound concentration between 2-fold increase as compared to mean IL-2 production of stimulated cells in the absence of compounds and <2 ng/mL) | 1.58 to 5.01 | 1.58 to 5.01
10 | Cl.N[C@H]1CSc2ccc(C(=O)NCCCC(F)(F)F)cc2N(Cc2ccc(Cl)cc2)C1=O [Example 22, (3R)-3-amino-5-[(4-chlorophenyl)methyl]-4-oxo-N-(4,4,4-trifluorobutyl)-2,3,4,5-tetrahydro-1,5-benzothiazepine-7-carboxamide hydrochloride] | B (IL-2 production at 3 μM compound concentration between 2-10 ng/mL) | 1.58 to 5.01 | 1.58 to 5.01
11 | Cl.N[C@H]1CS(=O)(=O)c2cc(F)c(C(=O)NOc3ccccc3)cc2N(Cc2ccc(OC(F)(F)F)cc2)C1=O [Example 74, (3R)-3-amino-8-fluoro-1,1,4-trioxo-N-phenoxy-5-{[4-(trifluoromethoxy)phenyl]methyl}-2,3,4,5-tetrahydro-1λ^6,5-benzothiazepine-7-carboxamide hydrochloride] | C (IL-2 production at 3 μM compound concentration between 2-fold increase as compared to mean IL-2 production of stimulated cells in the absence of compounds and <2 ng/mL) | 1.58 to 5.01 | > 5.01
12 | CC(C)C(C)NC(=O)c1ccc2c(c1)N(Cc1ccc(Cl)cc1)C(=O)[C@@H](N)CS2.Cl (stereo partly drawn) [Example 63, (3R)-3-amino-5-[(4-chlorophenyl)methyl]-N-(3-methylbutan-2-yl)-4-oxo-2,3,4,5-tetrahydro-1,5-benzothiazepine-7-carboxamide hydrochloride] | B (IL-2 production at 3 μM compound concentration between 2-10 ng/mL) | 1.58 to 5.01 | 1.58 to 5.01
13 | Cl.N[C@H]1CSc2cc(F)c(C(=O)NCc3ccc(F)cc3)cc2N(Cc2nnc(C3CC3)s2)C1=O [Example 113, (3R)-3-amino-5-[(5-cyclopropyl-1,3,4-thiadiazol-2-yl)methyl]-8-fluoro-N-[(4-fluorophenyl)methyl]-4-oxo-2,3,4,5-tetrahydro-1,5-benzothiazepine-7-carboxamide hydrochloride] | C (IL-2 production at 3 μM compound concentration between 2-fold increase as compared to mean IL-2 production of stimulated cells in the absence of compounds and <2 ng/mL) | 1.58 to 5.01 | > 5.01
14 | CC(NC(=O)c1ccc2c(c1)N(Cc1ccc(Cl)cc1)C(=O)[C@@H](N)CS2)c1ccc(F)cc1.Cl (stereo partly drawn) [Example 34, (3R)-3-amino-5-[(4-chlorophenyl)methyl]-N-[1-(4-fluorophenyl)ethyl]-4-oxo-2,3,4,5-tetrahydro-1,5-benzothiazepine-7-carboxamide hydrochloride] | C (IL-2 production at 3 μM compound concentration between 2-fold increase as compared to mean IL-2 production of stimulated cells in the absence of compounds and <2 ng/mL) | 1.58 to 5.01 | 1.58 to 5.01
15 | Cl.N[C@H]1CS(=O)(=O)c2cc(F)c(C(=O)N[C@H]3C[C@@H]3c3ccccc3)cc2N(Cc2ccc(Cl)cc2)C1=O [Example 98, (3R)-3-amino-5-[(4-chlorophenyl)methyl]-8-fluoro-1,1,4-trioxo-N-[(1S,2R)-2-phenylcyclopropyl]-2,3,4,5-tetrahydro-1λ^6,5-benzothiazepine-7-carboxamide hydrochloride] | A (IL-2 production at 3 μM compound concentration >10 ng/mL) | < 1.58 | < 1.58
16 | CCCCNC(=O)c1cc2c(cn1)S(=O)(=O)C[C@H](N)C(=O)N2Cc1ccc(Cl)cc1 [Example 183, (3R)-3-amino-N-butyl-1-[(4-chlorophenyl)methyl]-2,5,5-trioxo-1H,2H,3H,4H-5λ^6-pyrido[3,4-b][1,4]thiazepine-8-carboxamide hydrochloride] | C (IL-2 production at 3 μM compound concentration between 2-fold increase as compared to mean IL-2 production of stimulated cells in the absence of compounds and <2 ng/mL) | > 5.01 | > 5.01
17 | Cl.N[C@H]1CSc2ccc(C(=O)NCC3CCOCC3)cc2N(Cc2ccc(Cl)cc2)C1=O [Example 23, (3R)-3-amino-5-[(4-chlorophenyl)methyl]-N-(oxan-4-ylmethyl)-4-oxo-2,3,4,5-tetrahydro-1,5-benzothiazepine-7-carboxamide hydrochloride] | B (IL-2 production at 3 μM compound concentration between 2-10 ng/mL) | 1.58 to 5.01 | > 5.01
18 | Cl.N[C@H]1CSc2cc(F)c(C(=O)NCC3CCOCC3)cc2N(Cc2ccc(Cl)cc2)C1=O [Example 42, (3R)-3-amino-5-[(4-chlorophenyl)methyl]-8-fluoro-N-(oxan-4-ylmethyl)-4-oxo-2,3,4,5-tetrahydro-1,5-benzothiazepine-7-carboxamide hydrochloride] | C (IL-2 production at 3 μM compound concentration between 2-fold increase as compared to mean IL-2 production of stimulated cells in the absence of compounds and <2 ng/mL) | 1.58 to 5.01 | > 5.01
